Experimental data: patent publication EP0450065A1, “ANTIVIRAL AGENT” (priority 1988, dated 1990)
Like-named read-outs stand apart in the source and are kept apart here.

Tests used:
Format in all cases: cell-based
[1] = system: herpes simplex virus type 1 (HF strain); assay: Control of CPE (cytopathic effect) manifestation in vero cells; design: key to Cytopathic effect [CPE] (3days) Average / Cytopathic effect [CPE] (5days) Average / Cytopathic effect [CPE] (6days) Average: CPE score: 0 none, 0.5 minute spots, 1 = 25%, 2 = 50%, 3 = ≥75% cells; key to Cytopathic effect [CPE] (3days) △CPE / Cytopathic effect [CPE] (5days) △CPE / Cytopathic effect [CPE] (3days) ΔCPE / Cytopathic effect [CPE] (6days) ΔCPE: ΔCPE = difference of average CPE score (0–3 scale) from control; settings: 20 μg/ml, HSV-1 (HF strain), Example 5
Procedure: (§1) In vitro antiviral activity of Compound A against herpes simplex virus type 1 (HF strain) Compound A was tested for antiviral effect by the following two methods.
(§2) Vero cells cultured and grown in a monolayer on microplates to test for cytopathic effect due to viral infection, with solutions of Compound A diluted to varying ratios and solutions of virus diluted to varying ratios added severally thereto in a volume of 0.1 ml, were cultured under the conditions of 5% CO₂ and 37°C and were examined for CPE manifestation under a microscope. The observation was continued for five to six days.
(§3) The degree of CPE brought about by viral infection was rated on the five-point scale, wherein 3 stands for CPE observed on not less than 75% of cultured cells, 2 for CPE observed on 50% of cultured cells, 1 for CPE observed on 25% of cultured cells, 0.5 for occurrence of one to two extremely minute DPE spots, and 0 for perfect absence of recognizable CPE. The CPE scores obtained at the four holes in each microplate were averaged and the difference of the average from the average obtained in the control (omitting the treatment with a chemical) was reported as ΔCPE.
(§4) In vitro antiviral effect of Compound A against herpes simplex virus type 1 (HF strain) The test was carried out by following the procedure of Example 3.

[2] = system: herpes simplex virus type 1 (HF strain); assay: 50% Tissue culture infective dose (TCID50), Read-Munch method, negative logarithm of virus dilution
Procedure: as §1
(§5) The amount of virus infecting 50% of tissues (TCID₅₀) was determined by the Read-Munch method and expressed in negative logarithm of the maximum radio of dilution of virus. The difference of the amount thus determined from the amount found in the control (omitting the treatment with a chemical) was reported as ΔTCID₅₀. A sample whose ΔCPE's found on the last day of observation and on each of the days spent for the observation exceeded 1.0 was evaluated as effective.
as §4

[3] = system: herpes simplex virus type 2 (169 strain); assay: Control of CPE (cytopathic effect) manifestation in vero cells; design: key to Cytopathic effect [CPE] (3days) Average / Cytopathic effect [CPE] (5days) Average / Cytopathic effect [CPE] (6days) Average: CPE score 0-3: 3 = ≥75% cells, 2 = 50%, 1 = 25%, 0 = none; key to Cytopathic effect [CPE] (3days) △CPE / Cytopathic effect [CPE] (5days) △CPE / Cytopathic effect [CPE] (6days) △CPE: difference of mean CPE score (0-3 scale) from untreated control; settings: 20 μg/ml, HSV-2 (169), Example 6
Procedure: as §2, §3
(§6) In vitro antiviral activity of Compound A against herpes simplex virus type 2 (169 strain) The test was carried out by following the procedure of Example 3.

[4] = system: herpes simplex virus type 2 (169 strain); assay: 50% Tissue culture infective dose (TCID50), Read-Munch method, negative logarithm of virus dilution; design: key to Cytopathic effect [CPE] (5days) TCID50 / Cytopathic effect [CPE] (3days) TCID50 / Cytopathic effect [CPE] (6days) TCID50: negative log of maximum virus dilution infecting 50% of tissues; settings: 20 μg/ml, HSV-2 (169), Example 6
Procedure: as §5, §6

[5] = system: herpes simplex virus type 1 (KOS strain); assay: Control of CPE (cytopathic effect) manifestation in vero cells; settings: 30 μg/ml, HSV-1 (KOS), Example 7
Procedure: as §2, §3
(§7) Antiviral activity of Compound A and Compound B against herpes simplex virus type 1 (KOS strain) The test was carried out by following the procedure of Example 3.

[6] = system: herpes simplex virus type 1 (KOS strain); assay: 50% Tissue culture infective dose (TCID50), Read-Munch method, negative logarithm of virus dilution; design: key to Cytopathic effect [CPE] (5days) TCID50 / Cytopathic effect [CPE] (3days) TCID50: TCID50 as negative log of maximum virus dilution ratio; settings: 30 μg/ml, HSV-1 (KOS), Example 7; for log reduction at 30 µg/mL: difference from control
Procedure: as §5, §7

[7] = system: herpes simplex virus type 1 (KOS strain); assay: One-step growth of virus, plaque assay with vero cells; settings: 30 μg/ml, 24 hours; for inhibition at 30 µg/mL / log reduction at 30 µg/mL: Human alphaherpesvirus 1, Vero, 24 h; for inhibition at 30 µg/mL: read-out: Intracellular virus Control ratio %; for log reduction at 30 µg/mL: read-out: Intracellular virus Control ratio -logT/C
Procedure: Antiviral activity of Compound A and Compound B against one-step growth of herpes simplex virus type 1 (KOS strain) Cells grown in a monolayer, with a sample of a given compound diluted in a varying ratio added, were pretreated for 15 minutes. Then, the pretreated cells were infected with the herpes simplex virus type 1 (KOS strain) at an infecting ratio of 0.25 and left standing for 24 hours. At the end of the standing, the intracellular and extracellular amounts of virus were determined by the plaque assay with vero cells.

[8] = 20 μg/ml, HSV-1 (HF strain), Example 5

O=c1[nH]c(=O)n([C@H]2C[C@H](O)[C@@H](CO)O2)cc1I [IDU, reference compound]
Cytopathic effect [CPE] (3days) Average [1]: 2.25 | Cytopathic effect [CPE] (6days) Average [1]: 3.0 | Cytopathic effect [CPE] (3days) ΔCPE ([1]; difference from control): 0.5 | Cytopathic effect [CPE] (6days) ΔCPE ([1]; difference from control): 0 | Cytopathic effect [CPE] (3days) TCID50 [2, 8]: 6.3 | Cytopathic effect [CPE] (6days) TCID50 [2, 8]: 6.5 | log reduction at 20 µg/mL ([2]; Human alphaherpesvirus 1, 72 h, read-out: Cytopathic effect [CPE] (3days) ΔTCID50): 0 | log reduction at 20 µg/mL ([2]; Human alphaherpesvirus 1, 144 h, read-out: Cytopathic effect [CPE] (6days) ΔTCID50): -0.2 | Cytopathic effect [CPE] (3days) Average [3]: 0.75 | Cytopathic effect [CPE] (6days) Average [3]: 1.25 | Cytopathic effect [CPE] (3days) △CPE ([3]; difference from control): 1.75 | Cytopathic effect [CPE] (6days) △CPE ([3]; difference from control): 1.75 | Cytopathic effect [CPE] (3days) TCID50 [4]: 5.3 | Cytopathic effect [CPE] (6days) TCID50 [4]: 5.5 | log reduction at 20 µg/mL ([4]; Human alphaherpesvirus 2, 72 h, difference from control, read-out: Cytopathic effect [CPE] (3days) △TCID50): 1.4 | Cytopathic effect [CPE] (3days) Average [5]: 1.0 | Cytopathic effect [CPE] (5days) Average [5]: 2.0 | Cytopathic effect [CPE] (3days) △CPE ([5]; difference from control): 1.0 | Cytopathic effect [CPE] (5days) △CPE ([5]; difference from control): 1.0 | Cytopathic effect [CPE] (3days) TCID50 [6]: 5.3 | Cytopathic effect [CPE] (5days) TCID50 [6]: 6.0 | log reduction at 30 µg/mL ([6]; Human alphaherpesvirus 1, 72 h, read-out: Cytopathic effect [CPE] (3days) △TCID50): 0.2 | log reduction at 30 µg/mL ([6]; Human alphaherpesvirus 1, 120 h, read-out: Cytopathic effect [CPE] (5days) △TCID50): 0.3 | Intracellular virus Average ([7]; extracellular virus): 7.50×10^3 /dish | Intracellular virus Average [7]: 1.00×10^6 /dish | inhibition at 30 µg/mL ([7]; extracellular virus): > 99.9% | log reduction at 30 µg/mL ([7]; extracellular virus): 3.6 | inhibition at 30 µg/mL [7]: 99.8% | log reduction at 30 µg/mL [7]: 2.61
